Measurements published in patent US8680137B2, “Agents and methods for treating ischemic and other diseases” (Nono Inc., priority 2009, dated 2014).
pIC50: −log10 of the molar value. Where a name gives a salt, the structure may show the parent alone. Read-outs that look alike come from different tables or passages of the source.

Assays:
murine TRPM7 = murine TRPM7 (Mus musculus, UniProt Q923J1); test: TRPM7-mediated cell death screen, Tet-induced Flag-murine TRPM7 HEK293 Trex cells in Mg2+-deficient HBSS, PI fluorescence
Description: In the present example, human embryonic kidney (HEK293 Trex) cells were stably transfected with a tetracycline inducible Flag-tagged TRPM7 construct.
This cell death can be measured, and the impact of a candidate TRPM7 modulator on this cell death can be measured. […] Cell death can also be measured by fluorescent measurements of propidium iodide and dihydrorhodamine.
Tet-inducible Flag-murine TRPM7/pcDNA4-TO HEK293 Trex cells are cultured in: MEM (Invitrogen) supplemented with 10% fetal bovine serum, 20 mM GlutaMAX-1, 100 units/ml penicillin G sodium, 100 units/ml streptomycin sulfate, 0.25 ug/ml amphotericin B, 5 ug/ml blasticidin, 0.4 mg/ml zeocin. (All reagent were obtained from Invitrogen)
Stably transfected Flag-murine TRPM7/pcDNA4-TO HEK293 Trex cells are thawed from frozen stock kept in liquid nitrogen, and cultured in culture medium for 5 days in 100 mm dishes (Costa). […] Cells used in the present experiments are kept to three passages or less. The cells are maintained at 37° C. with 5% CO2 in a humidified incubator. All culture plates and multi-well plates (Costa) are coated with poly-D-lysine. The coating with poly-D-lysine is performed using 0.1 mg/ml poly-D-lysine (P1045 Sigma) for 12 h at 37C, followed by four washes with sterilized D-PBS (Invitrogen) without MgCl2 and CaCl2.).
When 384 well plates are used, Cells are seeded at 1.3−1.5×10^4 cells/well. When 96 well plates are used, cells are seeded at 4−5×10^4 Cells/well. After 24 h TRPM7 expression is induced by adding tetracycline (Tet; 1 ug/ml) (Invitrogen) for 24 h, followed by wash with Mg deficient HBSS.
The test compounds were plated in 96 or 384 well formats, and initially used at a concentration of: 4 μM for compounds of the LOPAC library and 5 μM for each of the Prestwick and Maybridge libraries.
Cell death in the presence or absence of a test compound and/or under conditions of TRPM7 activation was determined by fluorescence measurements of PI (5-50 μg/ml).
In brief, B scores are a relative potency score based on the raw sample PI fluorescence value. They are the ratio of an adjusted raw PI fluorescence value in the numerator to a measure of variability in the denominator.
In another approach, used manually to validate the results of the HTS method, a multiwell plate fluorescence scanner (Fluorskan Ascent; Thermo Scientific) was used. The fraction of dead cells in each culture was calculated as: fraction DEAD=(Ft−Fo)/Fmax Where Ft=PI fluorescence of the sample at time t, Fo=initial PI fluorescence and Fmax=background subtracted PI fluorescence the same cultures after exposure to 100 μM triton-X. An alternative to this formula is a Control-based formula wherein the fraction dead=[Ft−F(−)t]/[F(+)t−F(−)t] where Ft=PI fluorescence of the sample at time t, F(−)t is the PI fluorescence of the negative control sample at time t, F(+)t is the PI fluorescence of the positive control sample at time t.
Screening was carried out in Tet-induced Flag-murine TRPM7/pcDNA4-TO HEK293 Trex cells.

TRPM7 = TRPM7 (Homo sapiens, UniProt Q96QT4); settings: Nadler et al., Jiang et al.; read-out: IC50 for inhibition of TRPM7; cited from earlier work
H9c2 cells = test: OGD-induced cell death in H9c2 cardiomyocytes, PI uptake; format: cell-based, rat; settings: 6 hr anoxia + 2 hr recovery, gadolinium in buffer
Description: The rat cardiomyoblast cell line H9c2 was obtained from the American Type Culture Collection (CRL-1446) and cultured in Dulbecco's Modified Eagle Medium supplemented with 10% (v/v) heat-inactivated fetal bovine serum and 1% antibiotic-antimycotic. Cells were grown in an atmosphere of […]/5% CO2 in a humidified incubator.
H9c2 cells were made anoxic by replacing the medium with de-oxygenated Ischemic buffer (in mM: 1.13 CaCl2, 5 KCl, 0.3 KH2PO4, 0.5 MgCl2, 0.4 MgSO4, 128 NaCl, 10 HEPES) and by transferring them to an anaerobic chamber (5% CO2, 10% H2, 85% N2) for 6 hrs or 16 hrs at 37° C. OGD was terminated by washing the cells with oxygenated glucose-containing Control buffer (in mM: 1.13 CaCl2, 5 KCl, 0.3 KH2PO4, 0.5 MgCl2, 0.4 MgSO4, 128 NaCl, 10 HEPES 10 Glucose). Cultures were maintained for another 2 hrs at 37° C. in a humidified 5% CO2 atmosphere. Normoxic cells were maintained in Control buffer for the duration of the experiment.
Cell death was determined by fluorescence measurements of PI (5 μg/ml) using a multiwell plate fluorescence scanner. The fraction of dead cells in each culture was calculated as: fraction dead=(Ft−F0)/Fmax where Ft=PI fluorescence at 2 hrs post-OGD, F0=initial PI fluorescence immediately after the OGD treatment, and Fmax=PI fluorescence of the same cultures following 20 mins incubation in 1% TritonX-100.
H9c2 cells were cultured and subjected to OGD as described supra. FIG. 71 panels A and B show the results of exposure to M21 or M5 for 24 hours following 6 hours of OGD. FIG. 71 panels C and D show the results of H9c2cells were treated with either 1 mM Mg^2+, 5 μM M6, M11 (acute treatment) during the anoxic and recovery periods, or 1 μM nifedipine. Results are presented as mean±SEM (n=4).

[1] = LOPAC (4 μM) and Prestwick (5 μM) hits
[2] = Prestwick library, 39 nM to 20 μM
[3] = Prestwick library, initial concentration 5 μM, HTS PI fluorescence
[4] = Prestwick library, manual replication
[5] = LOPAC library, initial concentration 4 μM, HTS PI fluorescence
[6] = LOPAC library, manual replication

Chain of murine TRPM7 (Q923J1 whole entry): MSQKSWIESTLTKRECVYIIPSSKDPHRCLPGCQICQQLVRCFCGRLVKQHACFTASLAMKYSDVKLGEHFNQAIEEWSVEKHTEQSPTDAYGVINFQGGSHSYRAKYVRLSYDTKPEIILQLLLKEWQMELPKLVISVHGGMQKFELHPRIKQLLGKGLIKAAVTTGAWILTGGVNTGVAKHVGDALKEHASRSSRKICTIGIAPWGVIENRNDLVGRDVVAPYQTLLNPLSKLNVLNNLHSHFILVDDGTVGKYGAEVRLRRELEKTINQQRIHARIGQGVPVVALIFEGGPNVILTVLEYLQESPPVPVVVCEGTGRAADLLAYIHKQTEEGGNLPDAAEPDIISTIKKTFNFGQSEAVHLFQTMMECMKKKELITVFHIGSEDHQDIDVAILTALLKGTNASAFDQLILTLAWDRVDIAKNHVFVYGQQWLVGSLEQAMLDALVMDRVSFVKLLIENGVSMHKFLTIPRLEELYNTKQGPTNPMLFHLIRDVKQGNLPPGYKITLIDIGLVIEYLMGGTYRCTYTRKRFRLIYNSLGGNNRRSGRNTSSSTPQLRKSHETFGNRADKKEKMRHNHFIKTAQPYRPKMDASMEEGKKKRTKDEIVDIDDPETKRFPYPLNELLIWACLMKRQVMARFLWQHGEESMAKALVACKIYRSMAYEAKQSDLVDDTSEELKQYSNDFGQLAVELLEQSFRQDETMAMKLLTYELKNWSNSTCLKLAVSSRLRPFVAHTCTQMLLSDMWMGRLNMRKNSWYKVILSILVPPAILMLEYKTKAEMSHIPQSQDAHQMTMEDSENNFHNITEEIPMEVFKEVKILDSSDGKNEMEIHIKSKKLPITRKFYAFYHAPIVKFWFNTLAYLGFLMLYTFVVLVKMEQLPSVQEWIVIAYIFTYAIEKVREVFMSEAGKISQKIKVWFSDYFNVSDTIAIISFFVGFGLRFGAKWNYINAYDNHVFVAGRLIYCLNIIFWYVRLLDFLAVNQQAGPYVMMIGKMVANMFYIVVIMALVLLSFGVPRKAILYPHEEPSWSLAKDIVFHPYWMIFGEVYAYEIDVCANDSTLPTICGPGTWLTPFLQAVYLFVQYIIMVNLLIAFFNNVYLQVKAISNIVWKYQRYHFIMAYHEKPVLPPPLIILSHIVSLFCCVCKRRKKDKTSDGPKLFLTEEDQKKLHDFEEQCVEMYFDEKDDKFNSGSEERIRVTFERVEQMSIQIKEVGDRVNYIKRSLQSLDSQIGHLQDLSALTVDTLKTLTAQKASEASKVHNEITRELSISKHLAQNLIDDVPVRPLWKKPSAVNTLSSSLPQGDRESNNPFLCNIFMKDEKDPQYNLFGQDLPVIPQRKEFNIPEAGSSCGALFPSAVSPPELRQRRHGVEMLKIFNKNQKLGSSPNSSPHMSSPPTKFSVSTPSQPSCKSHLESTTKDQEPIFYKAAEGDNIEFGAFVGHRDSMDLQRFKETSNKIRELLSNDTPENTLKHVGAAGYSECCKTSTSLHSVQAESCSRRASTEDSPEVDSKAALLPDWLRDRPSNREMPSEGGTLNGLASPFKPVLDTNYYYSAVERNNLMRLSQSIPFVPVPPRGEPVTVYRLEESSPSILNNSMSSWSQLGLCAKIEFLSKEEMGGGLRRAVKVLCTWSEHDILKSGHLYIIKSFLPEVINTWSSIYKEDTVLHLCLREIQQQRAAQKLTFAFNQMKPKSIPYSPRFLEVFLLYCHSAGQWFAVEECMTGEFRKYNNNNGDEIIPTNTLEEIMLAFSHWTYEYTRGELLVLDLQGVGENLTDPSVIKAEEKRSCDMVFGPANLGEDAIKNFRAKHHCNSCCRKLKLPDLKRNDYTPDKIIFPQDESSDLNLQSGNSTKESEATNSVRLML
Chain of TRPM7 (Q96QT4 whole entry): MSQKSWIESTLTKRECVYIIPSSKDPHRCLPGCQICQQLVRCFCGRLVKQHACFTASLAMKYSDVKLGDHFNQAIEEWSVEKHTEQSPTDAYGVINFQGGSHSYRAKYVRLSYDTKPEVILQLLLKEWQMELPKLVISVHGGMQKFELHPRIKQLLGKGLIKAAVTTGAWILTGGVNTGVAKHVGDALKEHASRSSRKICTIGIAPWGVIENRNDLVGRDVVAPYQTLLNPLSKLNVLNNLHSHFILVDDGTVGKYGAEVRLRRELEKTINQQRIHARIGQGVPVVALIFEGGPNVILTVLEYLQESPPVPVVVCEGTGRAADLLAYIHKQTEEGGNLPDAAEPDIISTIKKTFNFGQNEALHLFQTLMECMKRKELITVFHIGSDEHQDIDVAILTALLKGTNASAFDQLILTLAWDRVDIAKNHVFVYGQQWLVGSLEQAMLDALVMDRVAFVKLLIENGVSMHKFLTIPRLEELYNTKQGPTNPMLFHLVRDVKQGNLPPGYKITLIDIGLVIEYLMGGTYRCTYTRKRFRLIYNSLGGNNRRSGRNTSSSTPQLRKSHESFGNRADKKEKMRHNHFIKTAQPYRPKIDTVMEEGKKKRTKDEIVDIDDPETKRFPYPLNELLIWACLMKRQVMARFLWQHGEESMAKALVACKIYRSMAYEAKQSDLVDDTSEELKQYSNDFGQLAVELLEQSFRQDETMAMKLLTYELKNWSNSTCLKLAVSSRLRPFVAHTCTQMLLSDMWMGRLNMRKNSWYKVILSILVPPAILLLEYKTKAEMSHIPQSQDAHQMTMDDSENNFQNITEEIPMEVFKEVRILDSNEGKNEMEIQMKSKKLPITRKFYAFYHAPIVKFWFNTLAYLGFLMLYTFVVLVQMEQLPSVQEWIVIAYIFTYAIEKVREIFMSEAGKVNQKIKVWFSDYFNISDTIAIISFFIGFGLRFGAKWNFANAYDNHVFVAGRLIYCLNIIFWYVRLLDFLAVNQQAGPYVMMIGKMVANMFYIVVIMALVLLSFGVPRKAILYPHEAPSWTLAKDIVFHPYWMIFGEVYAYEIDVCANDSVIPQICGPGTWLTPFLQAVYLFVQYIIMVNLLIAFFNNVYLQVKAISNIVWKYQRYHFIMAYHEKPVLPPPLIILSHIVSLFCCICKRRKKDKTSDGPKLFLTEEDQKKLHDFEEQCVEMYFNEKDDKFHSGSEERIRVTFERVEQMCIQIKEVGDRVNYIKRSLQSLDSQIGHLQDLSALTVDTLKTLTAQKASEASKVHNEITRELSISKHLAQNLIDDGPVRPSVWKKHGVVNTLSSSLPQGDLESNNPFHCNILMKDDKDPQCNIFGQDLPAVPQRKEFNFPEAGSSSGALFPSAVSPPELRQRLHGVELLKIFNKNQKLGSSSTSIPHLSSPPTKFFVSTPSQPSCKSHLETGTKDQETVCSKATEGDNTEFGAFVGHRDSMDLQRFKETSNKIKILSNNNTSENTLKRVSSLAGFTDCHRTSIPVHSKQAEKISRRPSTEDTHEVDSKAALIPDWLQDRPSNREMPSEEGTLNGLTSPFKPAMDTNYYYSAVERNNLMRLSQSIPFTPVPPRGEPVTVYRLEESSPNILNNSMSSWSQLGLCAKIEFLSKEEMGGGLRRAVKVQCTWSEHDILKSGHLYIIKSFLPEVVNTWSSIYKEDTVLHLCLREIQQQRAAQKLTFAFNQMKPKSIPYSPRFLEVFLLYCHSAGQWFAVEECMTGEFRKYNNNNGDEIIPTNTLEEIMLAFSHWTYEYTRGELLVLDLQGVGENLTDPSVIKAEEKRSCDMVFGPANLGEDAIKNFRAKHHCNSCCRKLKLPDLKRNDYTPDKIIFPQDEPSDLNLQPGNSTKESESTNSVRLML

| SMILES | found to inhibit TRPM7-mediated cell injury (murine TRPM7; [1]) | Dose-Response (murine TRPM7; [2]) | B Score (murine TRPM7; [3]) | Verification Ratio (murine TRPM7; [4]) | Dose-Response (murine TRPM7; LOPAC library, 39 nM to 20 μM) | B Score (murine TRPM7; [5]) | Verification Ratio (murine TRPM7; [6]) | further results |
| --- | --- | --- | --- | --- | --- | --- | --- | --- |
| COc1ccc(C[C@H]2NC[C@H](O)[C@H]2OC(C)=O)cc1 [Anisomycin] | inhibit TRPM7-mediated cell injury | Yes | −6.683 | 0.4265 | – | – | – | – |
| COc1cccc(OC)c1OCCNCC1CSc2ccccc2O1 (centres unmarked) [Benoxathian hydrochloride] | inhibit TRPM7-mediated cell injury | – | – | – | Yes | −10.32 | 0.359 | – |
| CCn1cnc2c(Nc3cccc(Cl)c3)nc(N[C@@H]3CCCC[C@@H]3N)nc21.Cl [CGP-74514A hydrochloride] | inhibit TRPM7-mediated cell injury | – | – | – | Yes | −7.96 | 0.6543 | – |
| C[C@@]12C(=O)OC(=O)[C@]1(C)[C@H]1CC[C@@H]2O1 [Cantharidin] | inhibit TRPM7-mediated cell injury | – | −9.671 | 0.3746 | – | −10.178 | 0.7724 | – |
| CC[C@H]1CN2CCc3cc(OC)c(OC)cc3[C@@H]2C[C@@H]1C[C@H]1NCCc2cc(O)c(OC)cc21.Cl.Cl.O.O.O.O.O.O.O [Cephaeline dihydrochloride heptahydrate] | inhibit TRPM7-mediated cell injury | – | −7.927 | 0.2271 | – | – | – | – |
| O=C(O)c1cc(O)cc(C(=O)O)n1 [Chelidamic acid] | inhibit TRPM7-mediated cell injury | – | – | – | Yes | −12.502 | 1.287 | – |
| Cc1cc(C2CCCCC2)n(O)c(=O)c1.NCCO [Ciclopirox ethanolamine] | inhibit TRPM7-mediated cell injury | Yes | −5.075 | 0.4227 | – | – | – | – |
| COc1cc2c(c(OC)c1OC)-c1ccc(OC)c(=O)cc1[C@@H](NC(C)=O)CC2 [Colchicine] | – | – | – | – | – | – | – | B Score (murine TRPM7): −7.343; Verification Ratio (murine TRPM7): 0.6723; found to inhibit TRPM7-mediated cell injury (murine TRPM7): inhibit TRPM7-mediated cell injury |
| COc1cccc2c1C(=O)c1c(O)c3c(c(O)c1C2=O)C[C@@](O)(C(C)=O)C[C@@H]3O[C@H]1C[C@H](N)[C@H](O)[C@H](C)O1 [Daunorubicin hydrochloride] | inhibit TRPM7-mediated cell injury | Yes | −5.68 | 0.4598 | – | – | – | – |
| C[C@H]1O[C@@H](O[C@H]2[C@@H](O)C[C@H](O[C@H]3[C@@H](O)C[C@H](O[C@H]4CC[C@@]5(C)[C@H](CC[C@@H]6[C@@H]5C[C@@H](O)[C@]5(C)[C@@H](C7=CC(=O)OC7)CC[C@]65O)C4)O[C@@H]3C)O[C@@H]2C)C[C@H](O)[C@@H]1O [Digoxin] | – | – | – | – | – | – | – | B Score (murine TRPM7): −5.938; Dose-Response (murine TRPM7): Yes; Verification Ratio (murine TRPM7): 0.7248; found to inhibit TRPM7-mediated cell injury (murine TRPM7): inhibit TRPM7-mediated cell injury |
| COc1cccc2c1C(=O)c1c(O)c3c(c(O)c1C2=O)C[C@@](O)(C(=O)CO)C[C@@H]3O[C@H]1C[C@H](N)[C@H](O)[C@H](C)O1 [Doxorubicin hydrochloride] | inhibit TRPM7-mediated cell injury | Yes | −9.315 | 0.4588 | – | – | – | – |
| CCOc1ccc(Cc2nccc3cc(OCC)c(OCC)cc23)cc1OCC [Ethaverine hydrochloride] | inhibit TRPM7-mediated cell injury | Yes | −9.238 | 0.08142 | – | – | – | – |
| Ic1ccccc1CNC1C2CCN(CC2)C1C(c1ccccc1)c1ccccc1.O=C(O)C(=O)O [L-703,606 oxalate] | inhibit TRPM7-mediated cell injury | – | – | – | Yes | −8.636 | 0.373 | – |
| CC[C@@H](C(=O)[C@@H](C)[C@@H](O)[C@H](C)CCc1ccc(C)c(O)c1C(=O)O)[C@H]1O[C@](CC)([C@H]2CC[C@](O)(CC)[C@H](C)O2)C[C@@H]1C [Lasalocid sodium salt] | inhibit TRPM7-mediated cell injury | – | −5.54 | 0.6891 | – | – | – | – |
| [Mg+2] [Mg^2+] | – | – | – | – | – | – | – | pIC50 (TRPM7): ~3.22 |
| O=C1c2c(O)ccc(O)c2C(=O)c2c(NCCNCCO)ccc(NCCNCCO)c21 [Mitoxantrone] | inhibit TRPM7-mediated cell injury | – | – | – | Yes | −7.587 | 0.25 | – |
| COc1ccccc1N1CCN(CC(O)COc2cccc3ccccc23)CC1 (centres unmarked) [Naftopidil dihydrochloride] | inhibit TRPM7-mediated cell injury | – | −8.736 | 0.1346 | Yes | −7.535 | 0.2231 | – |
| COC(=O)C1=C(C)NC(C)=C(C(=O)OCCN(C)Cc2ccccc2)C1c1cccc([N+](=O)[O-])c1 (centres unmarked) [Nicardipine hydrochloride] | inhibit TRPM7-mediated cell injury | Yes | −7.543 | 0.6651 | – | – | – | – |
| COc1cc(/C=C/C(=O)N2CCC=CC2=O)cc(OC)c1OC [Piperlongumine] | inhibit TRPM7-mediated cell injury | Yes | −9.599 | 0.7354 | – | – | – | – |
| COc1ccc(C[C@H](N)C(=O)N[C@H]2[C@@H](O)[C@H](n3cnc4c(N(C)C)ncnc43)O[C@@H]2CO)cc1 [Puromycin dihydrochloride] | inhibit TRPM7-mediated cell injury | Yes | −5.573 | 0.5905 | – | – | – | – |
| CCN(CC)CCCC(C)Nc1c2ccc(Cl)cc2nc2ccc(OC)cc12 (centres unmarked) [Quinacrine dihydrochloride] | inhibit TRPM7-mediated cell injury | – | – | – | Yes | −5.516 | 0.8254 | – |
| C[n+]1cc2c3c(ccc2c2ccc4cc5c(cc4c21)OCO5)OCO3 [Sanguinarine chloride] | inhibit TRPM7-mediated cell injury | – | – | – | – | −6.158 | 0.8029 | – |
| COc1cc2c(cc1OC)-c1c/c(=N\c3c(C)cc(C)cc3C)n(C)c(=O)n1CC2 [Trequinsin hydrochloride] | inhibit TRPM7-mediated cell injury | – | – | – | Yes | −8.81 | 0.2534 | – |
| [Gd] [gadolinium, reference compound] | – | – | – | – | – | – | – | OGD-mediated cell death (H9c2 cells): reduced |
